Laboratory results taken from patent US8946223B2, “Substituted hydroxamic acids and uses thereof” (Millennium Pharmaceuticals, Inc., priority 2010, dated 2015).

target: T1, purified human HDAC6 (Homo sapiens, UniProt Q9UBN7); experiment: HDAC6 enzyme assay; assay type: biochemical; conditions: bin: less than 100 nM
T1 construct: purchased BPS Bioscience 5006
T1 sequence (Q9UBN7 1-1215): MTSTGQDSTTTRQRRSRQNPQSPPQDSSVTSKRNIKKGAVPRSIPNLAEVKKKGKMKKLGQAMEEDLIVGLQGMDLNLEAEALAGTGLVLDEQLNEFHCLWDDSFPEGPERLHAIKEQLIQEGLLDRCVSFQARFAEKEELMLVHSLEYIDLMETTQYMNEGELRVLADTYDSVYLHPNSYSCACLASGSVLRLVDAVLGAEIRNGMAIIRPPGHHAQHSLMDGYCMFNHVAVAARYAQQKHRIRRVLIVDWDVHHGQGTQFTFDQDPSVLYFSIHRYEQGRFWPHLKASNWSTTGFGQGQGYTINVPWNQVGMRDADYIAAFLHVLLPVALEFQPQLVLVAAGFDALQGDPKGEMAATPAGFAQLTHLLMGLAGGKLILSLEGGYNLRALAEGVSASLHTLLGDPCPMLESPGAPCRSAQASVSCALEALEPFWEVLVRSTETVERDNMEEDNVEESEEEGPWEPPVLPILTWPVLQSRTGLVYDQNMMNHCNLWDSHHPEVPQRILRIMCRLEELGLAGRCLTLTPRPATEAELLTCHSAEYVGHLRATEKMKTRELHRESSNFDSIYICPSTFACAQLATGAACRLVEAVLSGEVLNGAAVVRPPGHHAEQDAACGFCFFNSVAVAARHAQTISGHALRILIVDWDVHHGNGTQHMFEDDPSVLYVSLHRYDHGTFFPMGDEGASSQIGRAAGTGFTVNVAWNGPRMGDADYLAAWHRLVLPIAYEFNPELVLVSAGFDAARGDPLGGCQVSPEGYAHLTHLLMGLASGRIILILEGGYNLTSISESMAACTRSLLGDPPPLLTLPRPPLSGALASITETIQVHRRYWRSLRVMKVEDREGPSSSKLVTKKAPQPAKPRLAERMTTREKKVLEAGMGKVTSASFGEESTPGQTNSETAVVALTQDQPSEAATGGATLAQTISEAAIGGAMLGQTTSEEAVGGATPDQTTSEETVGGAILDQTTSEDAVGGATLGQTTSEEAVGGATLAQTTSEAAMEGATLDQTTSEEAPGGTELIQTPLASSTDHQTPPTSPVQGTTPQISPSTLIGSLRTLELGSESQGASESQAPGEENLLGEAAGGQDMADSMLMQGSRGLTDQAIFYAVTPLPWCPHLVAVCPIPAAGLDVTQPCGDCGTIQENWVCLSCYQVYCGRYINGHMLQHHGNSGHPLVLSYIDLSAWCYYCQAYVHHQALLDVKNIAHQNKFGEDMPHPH
Protocol: To measure the inhibition of HDAC6 activity, purified human HDAC6 (BPS Bioscience; Cat. No. 5006) is incubated with substrate Ac-Arg-Gly-Lys(Ac)-AMC peptide (Bachem Biosciences; Cat. No. I-1925) for 1 hour at 30° C. in the presence of test compounds or vehicle DMSO control. The reaction is stopped with the HDAC inhibitor trichostatin A (Sigma; Cat. No. T8552) and the amount of Arg-Gly-Lys-AMC generated is quantitated by digestion with trypsin (Sigma; Cat. No. T1426) and subsequent measurement of the amount of AMC released using a fluorescent plate reader (Pherastar; BMG Technologies) set at Ex 340 nm and Em 460 nm. Concentration response curves are generated by calculating the fluorescence increase in test compound-treated samples relative to DMSO-treated controls, and enzyme inhibition (IC50) values are determined from those curves.

IC50 [µM]	Compound
< 0.1	Cn1c(C(=O)N2CCn3cc(C(=O)NO)cc3C2)ccc1S(N)(=O)=O [Compound I-47, 2-{[5-(aminosulfonyl)-1-methyl-1H-pyrrol-2-yl]carbonyl}-N-hydroxy-1,2,3,4-tetrahydropyrrolo[1,2-a]pyrazine-7-carboxamide]
< 0.1	O=C(NO)c1cc2n(c1)CCN(C(=O)c1ccc(-c3ccccc3)cc1)C2 [Compound I-51, 2-(biphenyl-4-ylcarbonyl)-N-hydroxy-1,2,3,4-tetrahydropyrrolo[1,2-a]pyrazine-7-carboxamide]
< 0.1	COc1ccc(C(=O)N2CCn3cc(C(=O)NO)cc3C2)cc1 [Compound I-68, N-hydroxy-2-(4-methoxybenzoyl)-1,2,3,4-tetrahydropyrrolo[1,2-a]pyrazine-7-carboxamide]
< 0.1	O=C(NO)c1cc2n(c1)CCN(C(=O)c1c[nH]c3ccccc13)C2 [Compound I-75, N-hydroxy-2-(1H-indol-3-ylcarbonyl)-1,2,3,4-tetrahydropyrrolo[1,2-a]pyrazine-7-carboxamide]
< 0.1	Cc1cc(C(=O)N2CCn3cc(C(=O)NO)cc3C2)c(C)o1 [Compound I-85, 2-(2,5-dimethyl-3-furoyl)-N-hydroxy-1,2,3,4-tetrahydropyrrolo[1,2-a]pyrazine-7-carboxamide]
< 0.1	Cc1c(C(=O)N2CCn3cc(C(=O)NO)cc3C2)cc(-c2ccccc2)n1-c1ccccc1 [Compound I-87, N-hydroxy-2-[(2-methyl-1,5-diphenyl-1H-pyrrol-3-yl)carbonyl]-1,2,3,4-tetrahydropyrrolo[1,2-a]pyrazine-7-carboxamide]
< 0.1	Cn1ccc2cc(C(=O)N3CCn4cc(C(=O)NO)cc4C3)ccc21 [Compound I-89, N-hydroxy-2-[(1-methyl-1H-indol-5-yl)carbonyl]-1,2,3,4-tetrahydropyrrolo[1,2-a]pyrazine-7-carboxamide]

same assay, conditions: bins: greater than 1 μM and less than 10 μM; greater than 10 μM

IC50 [µM]	Compound
1 to 10	CC(C)N1CCn2nc(C(=O)NO)cc2C1=O [Compound I-46, N-hydroxy-5-isopropyl-4-oxo-4,5,6,7-tetrahydropyrazolo[1,5-a]pyrazine-2-carboxamide]
> 10	COc1ccc(C(=O)N2CCCn3nc(C(=O)NO)cc3C2)cc1 [Compound I-53, N-hydroxy-5-(4-methoxybenzoyl)-5,6,7,8-tetrahydro-4H-pyrazolo[1,5-a][1,4]diazepine-2-carboxamide]
> 10	CS(=O)(=O)c1cccc(C(=O)N2CCn3cc(C(=O)NO)cc3C2)c1 [Compound I-54, N-hydroxy-2-[3-(methylsulfonyl)benzoyl]-1,2,3,4-tetrahydropyrrolo[1,2-a]pyrazine-7-carboxamide]
1 to 10	Cc1nc(C(=O)N2CCn3cc(C(=O)NO)nc3C2)cs1 [Compound I-55, N-hydroxy-7-[(2-methyl-1,3-thiazol-4-yl)carbonyl]-5,6,7,8-tetrahydroimidazo[1,2-a]pyrazine-2-carboxamide]
1 to 10	O=C(NO)c1cc2n(c1)CCCN(C(=O)c1ccc(Cl)cc1)C2 [Compound I-56, 2-(4-chlorobenzoyl)-N-hydroxy-2,3,4,5-tetrahydro-1H-pyrrolo[1,2-a][1,4]diazepine-8-carboxamide]
1 to 10	CC(C)(C)CC(=O)N1CCCn2cc(C(=O)NO)cc2C1 [Compound I-59, 2-(3,3-dimethylbutanoyl)-N-hydroxy-2,3,4,5-tetrahydro-1H-pyrrolo[1,2-a][1,4]diazepine-8-carboxamide]
1 to 10	Cn1nc(C(C)(C)C)cc1C(=O)N1CCCn2cc(C(=O)NO)cc2C1 [Compound I-63, 2-[(3-tert-butyl-1-methyl-1H-pyrazol-5-yl)carbonyl]-N-hydroxy-2,3,4,5-tetrahydro-1H-pyrrolo[1,2-a][1,4]diazepine-8-carboxamide]
1 to 10	O=C(NO)c1cc2n(c1)CCN(C(=O)c1cnn(-c3ccccc3)c1C(F)(F)F)C2 [Compound I-64, N-hydroxy-2-{[1-phenyl-5-(trifluoromethyl)-1H-pyrazol-4-yl]carbonyl}-1,2,3,4-tetrahydropyrrolo[1,2-a]pyrazine-7-carboxamide]
> 10	Cc1ccc(C(=O)N2CCCn3cc(C(=O)NO)cc3C2)s1 [Compound I-69, N-hydroxy-2-[(5-methyl-2-thienyl)carbonyl]-2,3,4,5-tetrahydro-1H-pyrrolo [1,2-a][1,4]diazepine-8-carboxamide]
> 10	Cn1cccc1C(=O)N1CCCn2nc(C(=O)NO)cc2C1 [Compound I-71, N-hydroxy-5-[(1-methyl-1H-pyrrol-2-yl)carbonyl]-5,6,7,8-tetrahydro-4H-pyrazolo[1,5-a][1,4]diazepine-2-carboxamide]
1 to 10	O=C(NO)c1cc2n(n1)CCCN(C(=O)C13CC4CC(CC(C4)C1)C3)C2 [Compound I-72, 5-(1-adamantylcarbonyl)-N-hydroxy-5,6,7,8-tetrahydro-4H-pyrazolo[1,5-a][1,4]diazepine-2-carboxamide]
> 10	Cc1nc(C(=O)N2CCn3cc(C(=O)NO)cc3C2)cs1 [Compound I-73, N-hydroxy-2-[(2-methyl-1,3-thiazol-4-yl)carbonyl]-1,2,3,4-tetrahydropyrrolo[1,2-a]pyrazine-7-carboxamide]
1 to 10	CC1(C(=O)N2CCCn3cc(C(=O)NO)cc3C2)CCCCC1 [Compound I-74, N-hydroxy-2-[(1-methylcyclohexyl)carbonyl]-2,3,4,5-tetrahydro-1H-pyrrolo[1,2-a][1,4]diazepine-8-carboxamide]
1 to 10	CC(C)CCN1CCn2nc(C(=O)NO)cc2C1=O [Compound I-77, N-hydroxy-5-(3-methylbutyl)-4-oxo-4,5,6,7-tetrahydropyrazolo[1,5-a]pyrazine-2-carboxamide]
1 to 10	O=C(NO)c1cc2n(c1)CCCN(C(=O)c1c(Cl)cccc1Cl)C2 [Compound I-79, 2-(2,6-dichlorobenzoyl)-N-hydroxy-2,3,4,5-tetrahydro-1H-pyrrolo[1,2-a][1,4]diazepine-8-carboxamide]
1 to 10	Cc1ccc(-c2ccc(C(=O)N3CCCn4cc(C(=O)NO)cc4C3)cc2)cc1 [Compound I-80, N-hydroxy-2-[(4′-methylbiphenyl-4-yl)carbonyl]-2,3,4,5-tetrahydro-1H-pyrrolo[1,2-a][1,4]diazepine-8-carboxamide]
> 10	Cc1oc(-c2ccccc2)nc1CC(=O)N1CCn2cc(C(=O)NO)cc2C1 [Compound I-82, N-hydroxy-2-[(5-methyl-2-phenyl-1,3-oxazol-4-yl)acetyl]-1,2,3,4-tetrahydropyrrolo[1,2-a]pyrazine-7-carboxamide]
1 to 10	O=C(NO)c1cc2n(n1)CCN(CC1CC1)C2=O [Compound I-83, 5-(cyclopropylmethyl)-N-hydroxy-4-oxo-4,5,6,7-tetrahydropyrazolo[1,5-a]pyrazine-2-carboxamide]
> 10	O=C(NO)c1cc2n(c1)CCN(C(=O)c1cnn3cccnc13)C2 [Compound I-84, N-hydroxy-2-(pyrazolo[1,5-a]pyrimidin-3-ylcarbonyl)-1,2,3,4-tetrahydropyrrolo[1,2-a]pyrazine-7-carboxamide]
> 10	CCCCN1CCn2cc(C(=O)NO)cc2C1 [Compound I-86, 2-butyl-N-hydroxy-1,2,3,4-tetrahydropyrrolo[1,2-a]pyrazine-7-carboxamide]
1 to 10	CCOCCN1CCn2nc(C(=O)NO)cc2C1=O [Compound I-88, 5-(2-ethoxyethyl)-N-hydroxy-4-oxo-4,5,6,7-tetrahydropyrazolo[1,5-a]pyrazine-2-carboxamide]
